The source of these data is patent publication US4446047A, “Pleochroic anthraquinone dyes” (Imperial Chemical Industries PLC, priority 1981, dated 1984).

The conditions of series [1]: prior-art symmetrical dyes; cited from earlier work.
For series [2] the following is noted: prior-art symmetrical dyes; cited from earlier work. The source holds these as a separate data set.
For series [3] the following is noted: prior-art symmetrical dyes; cited from earlier work. The source holds these as a separate data set.
Series [4] in a line: Order parameter in liquid crystal medium E43. Format: physicochemical. To be noted: E43, 20° C., Table 4. As to the method:
(§1) In order to provide maximum contrast between the two states it is important that the guest molecules adopt as closely as possible the time averaged orientation of the host, however this is achieved only to a limited degree because of random thermal fluctuations. The degree to which the orientation varies from the ideal is measured by a quantity known as the order parameter S which is given by the following equation: […]
where cos^2 θ is a time averaged term and θ is the instantaneous angular orientation of the molecules with respect to the time averaged orientation of the host molecules.

The nature of series [5]: Absorption maximum in liquid crystal medium E43. The settings on record: E43, 20° C., Table 4. Format: physicochemical.
Text: Detection was by means of a u.v. source (254 nm) and samples, corresponding to all the peaks in the chromatogram, were collected.
Series [6] in a line: Molar extinction coefficient of the dye in liquid crystal material. Type of series: physicochemical. The text has this: Solubility is, however, only one of the factors affecting the achievement of good contrast in a liquid crystal display, another factor is the extinction coefficient of the dye in the liquid crystal material. One useful indication of the ability of a dye to give good contrast is the product of the molar extinction coefficient and the solubility (in moles/liter).

A short description of series [7]: Solubility in other liquid crystal media (hosts) / liquid crystal materials. Format: physicochemical. As to the method: (§2) The properties of some of the dyes described in the Examples were also measured in other liquid crystal media (hosts) at 20° C., unless otherwise stated, and the results are set out in Table 5.
(§3) The liquid crystal materials referred to in Table 5 as Hosts 1 to 12 have the following compositions:
(§4) Host 1 is the liquid crystal material E7, available from BDH Chemicals Ltd, which includes the compounds:
(§5) Host 2 is the liquid crystal material ZLI 1132, available from E Merck & Co, which includes the following compounds:
(§6) Host 3 is the liquid crystal material ZLI 1695, available from E Merck & Co, Darmstadt, West Germany. This has a clearing point (nematic to isotropic transition temperature) of 72° C.
(§7) Host 4 is a mixture of alkyl-cyanophenyl-dioxanes containing n-propyl, n-pentyl and n-heptyl chains.
(§8) Host 5 is the liquid crystal material ZLI 1565, available from E Merck & Co. This has a clearing point of 85° C.
(§9) Host 6 is the liquid crystal material ZLI 1624, available from E Merck & Co. This has a clearing point of 87° C.
(§10) Host 8 is the liquid crystal material RO-TN 430 available from Hoffmann La Roche Co. This has a clearing point of 69° C.
(§11) Host 9 is a mixed bicyclo-octane liquid crystal material containing the following compounds:
(§12) Host 10 is a mixture of liquid crystal materials based mainly on cyanobiphenyls and available from BDH Chemicals Ltd under the name E61.
(§13) Host 11 is a mixture of liquid crystal materials based mainly on cyanobiphenyls and available from BDH Chemicals Ltd under the name E49.
(§14) Host 12 is a mixture of fluorobicyclo(2,2,2)octane esters having negative anisotropy and containing a mixture of two compounds of the following formula: […]

Series [8] is described as follows: Order parameter in other liquid crystal media (hosts) / liquid crystal materials. Format: physicochemical. The settings on record: 20° C. The protocol: as §1
where cos^2 θ is a time averaged term and θ is the instantaneous angular orientation of the molecules with respect to the time averaged orientation of the host molecules. The determination of the value of the order parameter S is well understood in the art, see for example the paper, "A new absorptive mode reflective liquid crystal display device", by D. L. White and G. N. Taylor in the Journal of Applied Physics, 1974, 45, pages […] to 4723.
as §2, §3, §4, §5, §6, §7, §8, §9, §10, §11, §12, §13, §14

Where only a bound is given, the exact number is not on record here.

With `O=C1c2cccc(Sc3ccccc3)c2C(=O)c2cccc(Sc3ccccc3)c21` [1,5-bis(phenylthio)anthraquinone], the “solubility in the liquid crystal materials (in words)” value in series [1] is recorded as “insufficient for practical purposes”. Also, the “order parameters (in words)” value in series [2] is “high”. Besides, in series [3], the “stability (in words)” value is listed as “adequate”.

Regarding `CC(C)(C)c1ccc(Sc2cccc3c2C(=O)c2cccc(Sc4ccccc4)c2C3=O)cc1` [Example 11, 1-phenylthio-5-(4-t-butylphenylthio)anthraquinone], the “Order Parameter” value in series [4] was found to be 0.79; in series [8] (Host 1 (E7)), 0.73; in series [8] (Host 2 (ZLI 1132)), 0.79; in series [8] (Host 3 (ZLI 1695)) it was 0.81; in series [8] (Host 4 (alkyl-cyanophenyl-dioxanes mixture)), 0.74; in series [8] (Host 9 (mixed bicyclo-octane)), 0.81. The “Order Parameter” value in series [8] (Host 10 (E61)) came to 0.78; in series [8] (Host 11 (E49)), 0.78; in series [8] (Host 12 (fluorobicyclo(2,2,2)octane esters)), 0.77. The λmax in series [5] was determined as 464 nm. Also, the molar extinction coefficient in series [6] is 11,000 cm^2.moles^-1. For the same compound, the Solubility in series [7] (Host 2 (ZLI 1132), 20° C.) was 4.0%; in series [7] (Host 3 (ZLI 1695), 20° C.), 2.5%; in series [7] (Host 10 (E61), -2° C.), 4.0%; in series [7] (Host 11 (E49), 20° C.) it was above 5.0%; in series [7] (Host 11 (E49), -2° C.) it was 4.4%; in series [7] (Host 12 (fluorobicyclo(2,2,2)octane esters), 20° C.) it was 2.0%.
